From ChEMBL document CHEMBL1145929, “Syntheses and binding studies of new [(aryl)(aryloxy)methyl]piperidine derivatives and related compounds as potential antidepressant drugs with high affinity for serotonin (5-HT) and norepinephrine (NE) transporters” (J Med Chem, 2003) come the findings set out here.

The target in assay [1] is T1, Sodium-dependent serotonin transporter (Rattus norvegicus, UniProt P31652). As to the kind of experiment: Binding affinity against serotonin transporter (SERT) by displacement of [3H]paroxetine in male wistar rats. Background: In a radioligand displacement assay an active substance lowers the binding of a labelled ligand.
Assay [2] addresses T2, 5-hydroxytryptamine receptor 1A (Rattus norvegicus, UniProt P19327).
T2 sequence (P19327 whole entry): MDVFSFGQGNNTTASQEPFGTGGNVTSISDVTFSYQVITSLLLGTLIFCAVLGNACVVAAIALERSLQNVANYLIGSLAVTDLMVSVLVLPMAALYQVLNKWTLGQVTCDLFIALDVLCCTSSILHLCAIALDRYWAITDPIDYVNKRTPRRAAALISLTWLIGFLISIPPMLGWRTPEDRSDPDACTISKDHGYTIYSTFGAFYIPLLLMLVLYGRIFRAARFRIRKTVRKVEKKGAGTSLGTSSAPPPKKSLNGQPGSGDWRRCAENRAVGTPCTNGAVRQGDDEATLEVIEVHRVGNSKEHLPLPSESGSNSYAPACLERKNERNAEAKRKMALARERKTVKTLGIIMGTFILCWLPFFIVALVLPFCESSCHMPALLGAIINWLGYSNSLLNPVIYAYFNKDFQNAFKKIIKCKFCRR
The assay can be described thus: Binding affinity against 5-hydroxytryptamine 1A receptor (5-HT1A) by displacement of [3H]8-OH-DPAT from rat hippocampus membranes. The assay is classed as cell membranes, Membrane.

The target of assay [3] is T3, 5-hydroxytryptamine receptor 2A (Rattus norvegicus, UniProt P14842). The assay can be described thus: Binding affinity against 5-hydroxytryptamine 2A receptor by displacement of [3H]-ketanserin from rat prefrontal cerebral cortex mambranes. The assay is classed as tissue-based, Frontal cortex.
The target of assay [4] is T3, 5-hydroxytryptamine receptor 2A. As to the kind of experiment: Binding affinity against 5-hydroxytryptamine 2A receptor by displacement of [3H]ketanserin from rat prefrontal cerebral cortex mambranes. It is filed as tissue-based, Frontal cortex.
For assay [5], the target named is T1, Sodium-dependent serotonin transporter. The assay can be described thus: Binding affinity to the serotonin transporter (SERT) measured by displacement of [3H]paroxetine in male wistar rats.
In assay [6] the target is Norepinephrine transporter (Rattus norvegicus, UniProt Q9WTR4). The assay can be described thus: Binding affinity against norepinephrine transporter (NET) by displacement of [3H]nisoxetine in male wistar rats.
Assay [7] has as its target Sodium-dependent dopamine transporter (Rattus norvegicus, UniProt P23977). As to the kind of experiment: Binding affinity against dopamine transporter (DAT) by displacement of [3H]WIN-35428 in male wistar rats.

Sodium-dependent dopamine transporter, sequence (P23977 whole entry): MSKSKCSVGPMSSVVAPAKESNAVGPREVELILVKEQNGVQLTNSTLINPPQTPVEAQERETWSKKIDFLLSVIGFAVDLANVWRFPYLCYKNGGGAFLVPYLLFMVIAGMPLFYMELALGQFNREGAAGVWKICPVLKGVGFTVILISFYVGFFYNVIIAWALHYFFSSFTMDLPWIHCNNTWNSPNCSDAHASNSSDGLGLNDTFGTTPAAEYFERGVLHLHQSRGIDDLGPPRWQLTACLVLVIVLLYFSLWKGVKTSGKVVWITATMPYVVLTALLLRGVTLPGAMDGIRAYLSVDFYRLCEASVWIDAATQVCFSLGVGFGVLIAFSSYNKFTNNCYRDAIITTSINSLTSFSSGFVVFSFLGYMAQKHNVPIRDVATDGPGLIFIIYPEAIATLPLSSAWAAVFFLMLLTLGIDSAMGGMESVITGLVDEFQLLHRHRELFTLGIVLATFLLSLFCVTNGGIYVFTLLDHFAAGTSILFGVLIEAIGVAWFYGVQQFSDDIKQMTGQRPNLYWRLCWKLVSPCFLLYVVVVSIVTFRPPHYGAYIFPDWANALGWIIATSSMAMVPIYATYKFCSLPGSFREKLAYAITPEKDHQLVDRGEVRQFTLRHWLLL
T1 sequence (P31652 whole entry): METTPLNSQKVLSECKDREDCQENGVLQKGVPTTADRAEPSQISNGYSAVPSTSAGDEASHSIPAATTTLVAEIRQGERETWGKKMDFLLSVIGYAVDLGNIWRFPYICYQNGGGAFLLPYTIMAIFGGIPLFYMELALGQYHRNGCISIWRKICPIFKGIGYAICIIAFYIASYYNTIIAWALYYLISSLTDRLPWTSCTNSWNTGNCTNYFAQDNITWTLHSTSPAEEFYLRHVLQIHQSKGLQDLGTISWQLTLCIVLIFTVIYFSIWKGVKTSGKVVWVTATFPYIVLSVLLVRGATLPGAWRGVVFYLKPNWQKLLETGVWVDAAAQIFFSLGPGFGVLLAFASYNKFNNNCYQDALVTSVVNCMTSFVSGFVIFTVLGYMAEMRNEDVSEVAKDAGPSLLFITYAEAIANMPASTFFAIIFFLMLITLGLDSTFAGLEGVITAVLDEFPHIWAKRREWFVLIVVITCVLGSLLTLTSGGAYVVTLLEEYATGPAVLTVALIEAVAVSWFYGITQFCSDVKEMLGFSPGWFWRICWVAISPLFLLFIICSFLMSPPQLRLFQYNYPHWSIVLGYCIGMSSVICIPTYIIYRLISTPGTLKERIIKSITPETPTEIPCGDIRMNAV
Norepinephrine transporter, sequence (Q9WTR4 whole entry): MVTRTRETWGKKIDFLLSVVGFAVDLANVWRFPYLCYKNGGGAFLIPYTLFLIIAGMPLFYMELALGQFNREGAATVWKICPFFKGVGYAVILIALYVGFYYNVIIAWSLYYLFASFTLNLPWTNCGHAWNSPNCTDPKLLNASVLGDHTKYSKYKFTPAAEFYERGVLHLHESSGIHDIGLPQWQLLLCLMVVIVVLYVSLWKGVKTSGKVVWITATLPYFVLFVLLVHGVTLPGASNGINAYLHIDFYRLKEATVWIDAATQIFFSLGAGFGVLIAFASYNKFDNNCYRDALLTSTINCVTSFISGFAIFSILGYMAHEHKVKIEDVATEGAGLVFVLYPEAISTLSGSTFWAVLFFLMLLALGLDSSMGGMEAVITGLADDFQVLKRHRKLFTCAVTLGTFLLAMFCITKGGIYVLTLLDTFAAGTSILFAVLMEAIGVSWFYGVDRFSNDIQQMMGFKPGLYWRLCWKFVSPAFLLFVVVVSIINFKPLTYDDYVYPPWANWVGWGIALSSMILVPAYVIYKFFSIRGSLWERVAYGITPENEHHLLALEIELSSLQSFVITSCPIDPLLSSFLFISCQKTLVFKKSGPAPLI
T3 sequence (P14842 whole entry): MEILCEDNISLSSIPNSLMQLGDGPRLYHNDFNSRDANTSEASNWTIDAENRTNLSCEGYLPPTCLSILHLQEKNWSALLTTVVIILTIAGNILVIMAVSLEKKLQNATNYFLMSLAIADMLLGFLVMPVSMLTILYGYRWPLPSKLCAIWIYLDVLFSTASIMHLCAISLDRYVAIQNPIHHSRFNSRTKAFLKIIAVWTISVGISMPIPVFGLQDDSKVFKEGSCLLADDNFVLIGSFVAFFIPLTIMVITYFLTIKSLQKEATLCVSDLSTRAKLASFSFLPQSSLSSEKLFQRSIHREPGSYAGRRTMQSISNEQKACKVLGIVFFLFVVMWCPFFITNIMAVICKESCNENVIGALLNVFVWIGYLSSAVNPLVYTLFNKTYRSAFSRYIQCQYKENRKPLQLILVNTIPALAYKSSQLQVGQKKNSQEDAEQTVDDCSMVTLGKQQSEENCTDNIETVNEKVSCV

As for `Fc1cccc(OC(c2ccccc2)C2CCCC2)c1` (stereo not given), the IC50 in assay [1], in assay [2] and in assay [3] was over 1000 nM each time.

Regarding `Nc1ccc(OC(CCC(=O)C2CCN(c3ccc(F)cc3)CC2)c2ccc(F)cc2)cc1` (stereo not given), the IC50 in assay [1] and in assay [2] was over 1000 nM in each case. In assay [4], this compound displayed a Ki of 14.4 nM.

As for `c1ccc(-c2ccccc2OC(c2ccccc2)C2CCNCC2)cc1` (stereo not given), the IC50 in assay [1] and in assay [2] was over 1000 nM each time. The same compound returned a Ki in assay [4] of 149 nM.

Take `COc1cc2c(cc1OC)CN(CCC(Oc1ccc(C)cc1)c1ccccc1)CC2` (stereo not given): the IC50 in assay [1] was 325 nM; in assay [2], over 1000 nM; in assay [3], over 1000 nM.

Regarding `COc1ccc(OC(c2ccc(F)cc2)C2CCN(C(C)=O)CC2)cc1` (stereo not given), the half-maximal inhibitory concentration (IC50) in assay [1], in assay [2] and in assay [3] was over 1000 nM in each case.

Consider `Cc1ccc(OC(CCN2CCc3ccccc3C2)c2ccccc2)cc1` (stereo not given), for which the IC50 in assay [1], in assay [2] and in assay [3] was over 1000 nM throughout.

For `Oc1cc2c(cc1O)CN(CCC(Oc1ccc(Cl)cc1)c1ccccc1)CC2` (stereo not given), the IC50 in assay [1], in assay [2] and in assay [3] was over 1000 nM in each case.

For the compound `Oc1cc2c(cc1O)CN(CCC(Oc1ccccc1F)c1ccccc1)CC2` (stereo not given), the IC50 in assay [1], in assay [2] and in assay [3] was over 1000 nM throughout.

In the case of `O=C(CCC(Oc1ccc([N+](=O)[O-])cc1)c1ccccc1)C1CCN(c2ccc(F)cc2)CC1` (stereo not given), the IC50 in assay [1] and in assay [2] was over 1000 nM in each case. Further, in assay [4], the Ki came to 23 nM.

As to `c1ccc(-c2ccc(OC(c3ccccc3)C3CCNCC3)cc2)cc1` (stereo not given), the IC50 in assay [1], in assay [2] and in assay [3] was over 1000 nM throughout.

Take `O=C(CCC(Oc1ccc([N+](=O)[O-])cc1)c1ccc(F)cc1)C1CCN(c2ccc(F)cc2)CC1` (stereo not given): the IC50 in assay [1] and in assay [2] was over 1000 nM in each case. For the same compound, in assay [4], the Ki is 55.1 nM.

Regarding `Oc1cc2c(cc1O)CN(CCC(Oc1ccccc1C(F)(F)F)c1ccccc1)CC2` (stereo not given), the IC50 in assay [1], in assay [2] and in assay [3] was over 1000 nM in each case.

For the compound `Fc1cccc(OC(c2ccccc2)C2CCOCC2)c1` (stereo not given), the IC50 in assay [1], in assay [2] and in assay [3] was over 1000 nM each time.

On to `Fc1ccc(OC(CC2CCNCC2)c2ccccc2)cc1` (stereo not given), for which the results for the Ki in assay [5] and in assay [4] were 78.3 nM and 140 nM, respectively. The compound also gave an IC50 in assay [2] of over 1000 nM.

In the case of `FC(F)(F)c1cccc(OC(CCN2CCN(c3nsc4ccccc34)CC2)c2ccccc2)c1` (stereo not given), the IC50 in assay [1] and in assay [2] was over 1000 nM in each case. Also, the Ki in assay [4] was determined as 28.2 nM.

In the case of `Fc1ccc(OC(CC2CCNCC2)c2ccc(F)cc2)cc1` (stereo not given), the figures for the Ki in assay [5] and in assay [4] were 67.7 nM and 194 nM, respectively. For the same compound, in assay [2], the IC50 was over 1000 nM.

As to `Cc1ccc(OC(CCN2CCc3cc(O)c(O)cc3C2)c2ccccc2)cc1` (stereo not given), the IC50 in assay [1], in assay [2] and in assay [3] was over 1000 nM throughout.

Turning to `Fc1ccc(OC(c2cccc(F)c2)C2CCNCC2)cc1` (stereo not given), the figures for the Ki in assay [5] and in assay [4] were 5.8 nM and 360 nM, respectively. In assay [2], this compound yielded an IC50 of over 1000 nM.

Turning to `COc1cc2c(cc1OC)CN(CCC(Oc1ccc(Cl)cc1)c1ccccc1)CC2` (stereo not given), the IC50 in assay [1], in assay [2] and in assay [3] was over 1000 nM in each case.

Take `CN1CCC(C(Oc2ccc(F)cc2)c2ccccc2)CC1` (stereo not given): the half-inhibitory concentration (IC50) in assay [1] and in assay [2] was over 1000 nM throughout. The compound also had a Ki in assay [4] of 44.4 nM.

As for `Clc1ccc(OC(CCN2CCc3ccccc3C2)c2ccccc2)cc1` (stereo not given), the IC50 in assay [1], in assay [2] and in assay [3] was over 1000 nM in each case.

Regarding `FC(F)(F)c1ccccc1OC(CCN1CCc2ccccc2C1)c1ccccc1` (stereo not given), the IC50 in assay [1], in assay [2] and in assay [3] was over 1000 nM in each case.

`CC(=O)N1CCC(C(Oc2ccccc2)c2ccc(F)cc2)CC1` (stereo not given): the IC50 in assay [1], in assay [2] and in assay [3] was over 1000 nM in each case.

In the case of `Fc1ccccc1OC(c1ccccc1)C1CCNCC1` (single isomer, unassigned; (+)), the Ki worked out at 28.5 nM in assay [5], 41.4 nM in assay [6] and 520 nM in assay [7]. Besides, the IC50 in assay [2] and in assay [3] was over 1000 nM in each case.

For the compound `O=[N+]([O-])c1ccc(OC(c2ccccc2)C2CCNCC2)cc1` (single isomer, unassigned; (+)), the IC50 in assay [2], in assay [6], in assay [7] and in assay [3] was over 1000 nM in each case.

Take `c1ccc(C(Oc2cccc3ccccc23)C2CCNCC2)cc1` (single isomer, unassigned; (+)): the results for the Ki in assay [5] and in assay [6] were 20.1 nM and 417 nM, respectively. The IC50 in assay [2], in assay [7] and in assay [3] was over 1000 nM in each case.

Compound `Fc1cccc(OC(c2cccc(F)c2)C2CCNCC2)c1` (single isomer, unassigned; (+)) displayed a Ki in assay [5] of 2.8 nM. For the same compound, the IC50 was over 1000 nM in assay [2], over 500 nM in assay [7] and over 1000 nM in assay [3].

Consider `N#Cc1cccc(OC(c2ccccc2)C2CCNCC2)c1` (single isomer, unassigned; (+)), for which affinity in assay [5] was put at a Ki of 1.4 nM. The IC50 in assay [2], in assay [7] and in assay [3] was over 1000 nM in each case.

On to `Fc1cccc(C(Oc2ccccc2F)C2CCNCC2)c1` (single isomer, unassigned; (+)), for which the IC50 in assay [2] and in assay [3] was over 1000 nM each time. In assay [6], this compound gave a Ki of 48.1 nM.

With `Brc1ccc(OC(c2ccccc2)C2CCNCC2)cc1` (single isomer, unassigned; (+)), affinity in assay [5] was put at a Ki of 23.2 nM. Moreover, the half-inhibitory concentration (IC50) in assay [2], in assay [6], in assay [7] and in assay [3] was over 1000 nM throughout.

Turning to `Fc1ccccc1OC(c1ccccc1)C1CCNCC1` (single isomer, unassigned; (-)), the IC50 in assay [2], in assay [7] and in assay [3] was over 1000 nM in each case. In addition, the Ki in assay [6] is 22.5 nM.

In assay [5], `O=[N+]([O-])c1ccc(OC(c2ccccc2)C2CCNCC2)cc1` (single isomer, unassigned; (-)) yielded a Ki of 0.6 nM. Besides, the IC50 in assay [2] was over 1000 nM; in assay [6], over 500 nM; in assay [7], over 1000 nM; in assay [3] it was over 1000 nM.

With `N#Cc1cccc(OC(c2ccccc2)C2CCNCC2)c1` (single isomer, unassigned; (-)), the Ki in assay [5] was determined as 1.4 nM; in assay [7], 110 nM. The IC50 in assay [2] and in assay [3] was over 1000 nM throughout.

With `Fc1cccc(C(Oc2ccccc2F)C2CCNCC2)c1` (single isomer, unassigned; (-)), the Ki in assay [5] was 4.3 nM; in assay [6] it was 19.1 nM. The figures for the IC50 in assay [2], in assay [7] and in assay [3] were over 1000 nM, over 500 nM and over 1000 nM, respectively.

Consider `FC(F)(F)c1ccc(OC(c2ccccc2)C2CCNCC2)cc1` (single isomer, unassigned; (-)), for which the IC50 in assay [6] and in assay [7] was over 1000 nM in each case.

In turn, `Fc1cc(F)cc(OC(c2ccccc2)C2CCNCC2)c1` (stereo in doubt; (+)-15aj) showed a Ki in assay [5] of 7.1 nM. Also, the IC50 is over 1000 nM in assay [2], over 500 nM in assay [7] and over 1000 nM in assay [3].

Consider `Fc1cccc(OC(c2ccccc2)C2CCNCC2)c1` (stereo in doubt; (+)-15j), for which the IC50 in assay [2] and in assay [3] was over 1000 nM in each case. The results for the Ki in assay [6] and in assay [7] were 98.3 nM and 163 nM, respectively.

Regarding `Clc1cccc(OC(c2ccccc2)C2CCNCC2)c1` (stereo in doubt; (+)-15l), the IC50 in assay [2], in assay [7] and in assay [3] was over 1000 nM in each case.

With `Fc1ccc(OC(c2ccccc2)C2CCNCC2)cc1` (stereo in doubt; (+)-15p), the Ki was 0.4 nM in assay [5] and 821 nM in assay [7]. Also, the IC50 in assay [2] and in assay [3] was over 1000 nM each time.

Turning to `FC(F)(F)c1ccc(OC(c2ccccc2)C2CCNCC2)cc1` (stereo in doubt; (+)-15q), the IC50 in assay [6] and in assay [7] was over 1000 nM each time.

`Fc1cc(F)cc(OC(c2ccccc2)C2CCNCC2)c1` (stereo in doubt; (-)-15aj): the IC50 in assay [2], in assay [7] and in assay [3] was over 1000 nM each time.

With `Fc1cccc(OC(c2ccccc2)C2CCNCC2)c1` (stereo in doubt; (-)-15j), the IC50 in assay [2] and in assay [3] was over 1000 nM throughout. Also, in assay [6], the Ki was found to be 13.5 nM.

For the compound `Clc1cccc(OC(c2ccccc2)C2CCNCC2)c1` (stereo in doubt; (-)-15l), the IC50 in assay [2] is over 1000 nM; in assay [7], over 500 nM; in assay [3], over 1000 nM.

One may read the IC50 as the point on the concentration scale where inhibition reaches its midpoint. As a reminder, the Ki is a dissociation constant, usually derived from enzyme kinetics or from competition with a known ligand. Lower therefore signals higher affinity.
